In the PolyMetriX glass transition set:
± gives the standard deviation of the reports.

`*/C(=C(/*)c1ccc([Si](C)(C)C)cc1)c1ccccc1` (repeat unit) gave a glass transition temperature of 200.00 °C.

`*C(*)C(=O)OC` (repeat unit) gave a glass transition temperature of 85.8 °C.

With `*C(*)F` (repeat unit) the glass transition temperature was 102.00 °C.

`*C(*)O` (repeat unit) gave a glass transition temperature of 134.00 °C.

For `*C(=O)c1ccc2c(c1)C(=O)N(c1ccc(C(=O)c3ccc(N4C(=O)c5ccc(*)cc5C4=O)cc3)cc1)C2=O` (repeat unit), the glass transition temperature was 293.00 ± 4.9 °C.

Work on `*C(=O)c1ccc2c(c1)C(=O)N(c1ccc(Oc3ccc(N4C(=O)c5ccc(*)cc5C4=O)cc3)cc1)C2=O` (repeat unit) yielded a glass transition temperature of 290.00 ± 28 °C.

Work on `*C(=O)c1ccc2c(c1)C(=O)N(c1cccc(Cc3cccc(N4C(=O)c5ccc(*)cc5C4=O)c3)c1)C2=O` (repeat unit) yielded a glass transition temperature of 249.50 ± 20 °C.

Compound `*C(C)C(*)C(=O)OCC` (repeat unit) has a glass transition temperature of 157.00 °C.

With `*C(C)C(*)C(=O)OCCC` (repeat unit) the glass transition temperature was 116.00 °C.

For `*C(C)C(*)C(=O)OCCCC` (repeat unit), the glass transition temperature was 90.00 °C.

For `*C(F)(F)C(*)(F)OC(F)(F)C(F)(F)F` (repeat unit), the glass transition temperature was 29.00 °C.

Work on `*C(F)(F)C(*)(F)c1c(F)c(F)c(F)c(F)c1F` (repeat unit) yielded a glass transition temperature of 194.00 °C.

`*C(F)(F)C1(F)C(F)(F)C(*)(F)C1(F)F` (repeat unit) showed a glass transition temperature of 122.00 °C.

`*C(F)C(*)(F)OC(F)(F)F` (repeat unit) showed a glass transition temperature of -10.00 °C.

Compound `*C([2H])([2H])C(*)(C(=O)OC([2H])([2H])C([2H])([2H])[2H])C([2H])([2H])[2H]` (repeat unit) has a glass transition temperature of 94.00 °C.

`*C([2H])([2H])C(*)(C(=O)OC([2H])([2H])[2H])C([2H])([2H])[2H]` (repeat unit) gave a glass transition temperature of 115.00 °C.

`*C([2H])([2H])C(*)([2H])Cl` (repeat unit) gave a glass transition temperature of 85.00 °C.

For `*C(c1ccc(N(C)C)cc1)C(*)c1ccc([N+](=O)[O-])cc1` (repeat unit), the glass transition temperature was 139.00 °C.

In the case of `*C/C=C/N(/C=C/CC1CC(=O)N(c2ccc(Cc3ccc(N4C(=O)CC(*)C4=O)cc3)cc2)C1=O)c1ccc(/N=N/c2ccc([N+](=O)[O-])cc2)cc1` (repeat unit), the glass transition temperature is reported as 277.00 °C.

With `*C1=C(c2ccc(-c3ccc4c(c3)C(CCCCCC)(CCCCCC)c3cc(-c5ccc(*)cc5)ccc3-4)cc2)C(=O)N(CCCCCCCC)C1=O` (repeat unit) the glass transition temperature was 122.00 °C.

Work on `*C1C(=O)N(C2CCCCC2)C(=O)C1*` (repeat unit) yielded a glass transition temperature of 232.00 °C.

In the case of `*C1C(=O)N(CCCCCCCCOc2ccc(-c3ccc(C#N)cc3)cc2)C(=O)C1*` (repeat unit), the glass transition temperature is reported as 43.00 °C.

Work on `*C1C(=O)N(CCCCCOc2ccc(-c3ccc(C#N)cc3)cc2)C(=O)C1*` (repeat unit) yielded a glass transition temperature of 75.00 °C.

With `*C1C(=O)N(c2cc(Br)c(O[Si](C)(C)C)c(Br)c2)C(=O)C1*` (repeat unit) the glass transition temperature was 167.00 °C.

In the case of `*C1C(=O)N(c2ccc(O[Si](C)(C)C)cc2)C(=O)C1*` (repeat unit), the glass transition temperature is reported as 172.00 °C.

Compound `*C1C(=O)N(c2ccccc2C(=O)OC)C(=O)C1*` (repeat unit) has a glass transition temperature of 259.00 °C.

`*C1C(=O)OC(=O)C1C1C2CC(C(=O)OC(C)CC)C(C2)C1*` (repeat unit) showed a glass transition temperature of 175.00 °C.

Work on `*C1C(=O)OC(=O)C1C1C2CC(COCCC)C(C2)C1*` (repeat unit) yielded a glass transition temperature of 209.00 °C.

In the case of `*CC(OC(C)=O)C(CCC(C)(O)C=C)C(*)(C)C` (repeat unit), the glass transition temperature is reported as 85.00 °C.

`*CC(c1ccccc1)C1C(=O)NC(=O)C1*` (repeat unit) showed a glass transition temperature of 246.00 °C.

`*CC/C=C(/*)C(C)C` (repeat unit) showed a glass transition temperature of -47.00 °C.

Compound `*CC/C=C(/*)CCCCCCC` (repeat unit) has a glass transition temperature of -83.00 °C.

`*CC/C=[C](/*)[Sn]([CH2]CCC)([CH2]CCC)[CH2]CCC` (repeat unit) gave a glass transition temperature of -80.00 °C.

`*CCC/C=C(/*)c1ccc(OC)cc1` (repeat unit) showed a glass transition temperature of 11.00 °C.

For `*CCCCCCCCCCCCCCCCOC(=O)C/C=C/CC(=O)O*` (repeat unit), the glass transition temperature was -22.00 °C.

For `*c1cc(CCCCCCCC)c(*)s1` (repeat unit), the glass transition temperature was -13.10 ± 5.5 °C.

`*c1cc(CCCCCCCCCCCC)c(*)s1` (repeat unit) gave a glass transition temperature of -24.2 ± 8.1 °C.

For `*c1ccc(-c2ccc(-n3c(=O)c4cc5c(=O)n(*)c(=O)c5cc4c3=O)cc2C(F)(F)F)c(C(F)(F)F)c1` (repeat unit), the glass transition temperature was 379.00 ± 21 °C.

In the case of `*c1ccc(-c2ccc(-n3c(=O)c4cc5c(=O)n(*)c(=O)c5cc4c3=O)cc2OC(F)(F)F)c(OC(F)(F)F)c1` (repeat unit), the glass transition temperature is reported as 373.50 ± 15 °C.

For `*c1ccc(C(=O)c2cccc(-n3c(=O)c4cc5c(=O)n(*)c(=O)c5cc4c3=O)c2)cc1` (repeat unit), the glass transition temperature was 340.00 ± 11 °C.

In the case of `*c1ccc(C(c2ccc(-n3c(=O)c4cc5c(=O)n(*)c(=O)c5cc4c3=O)cc2)(C(F)(F)F)C(F)(F)F)cc1` (repeat unit), the glass transition temperature is reported as 362.50 ± 25 °C.

`*c1ccc(N2C(=O)c3ccc(-c4cccc5c4C(=O)N(*)C5=O)cc3C2=O)cc1` (repeat unit) showed a glass transition temperature of 405.00 ± 36 °C.

For `*c1ccc(Oc2ccc(-c3ccc(Oc4ccc(N5C(=O)C(c6ccccc6)=C(c6ccc(C7=C(c8ccccc8)C(=O)N(*)C7=O)cc6)C5=O)cc4)cc3)cc2)cc1` (repeat unit), the glass transition temperature was 282.00 °C.

`*c1ccc(Oc2ccc(C(c3ccc(Oc4ccc(-n5c(=O)c6cc7c(=O)n(*)c(=O)c7cc6c5=O)cc4)cc3)(C(F)(F)F)C(F)(F)F)cc2)cc1` (repeat unit) showed a glass transition temperature of 302.50 ± 11 °C.

For `*c1ccc(Oc2ccc(N3C(=O)C(c4ccccc4)=C(c4ccc(C5=C(c6ccccc6)C(=O)N(*)C5=O)cc4)C3=O)cc2)cc1` (repeat unit), the glass transition temperature was 293.00 °C.

`*c1ccc(Oc2ccc(N3C(=O)c4ccc(Oc5ccc6c(c5)C(=O)N(*)C6=O)cc4C3=O)cc2)cc1` (repeat unit) gave a glass transition temperature of 269.00 ± 14 °C.

Compound `*c1ccc2c(c1)C(=O)N(c1ccc(N3C(=O)c4ccc(C(*)(C(F)(F)F)C(F)(F)F)cc4C3=O)cc1)C2=O` (repeat unit) has a glass transition temperature of 355.50 ± 19 °C.

For `*c1ccc2c(c1)C(=O)N(c1ccc(S(=O)(=O)c3ccc(N4C(=O)c5ccc(C(*)(C(F)(F)F)C(F)(F)F)cc5C4=O)cc3)cc1)C2=O` (repeat unit), the glass transition temperature was 336.50 ± 0.7 °C.

Compound `*c1ccc2c(c1)C(=O)N(c1cccc(N3C(=O)c4ccc(C(*)(C(F)(F)F)C(F)(F)F)cc4C3=O)c1)C2=O` (repeat unit) has a glass transition temperature of 298.00 ± 3.2 °C.

`*c1ccc2c(c1)C(=O)N(c1cccc(Oc3cccc(Oc4cccc(N5C(=O)c6ccc(C(*)(C(F)(F)F)C(F)(F)F)cc6C5=O)c4)c3)c1)C2=O` (repeat unit) showed a glass transition temperature of 206.50 ± 0.7 °C.

Compound `*c1ccc2c3ccc(-c4ccc(-c5ccc(-c6ccc(*)s6)c6nsnc56)s4)cc3n(C(CCCCCCCC)CCCCCCCC)c2c1` (repeat unit) has a glass transition temperature of 121.00 ± 7.1 °C.

`*c1cccc(S(=O)(=O)c2cccc(N3C(=O)c4ccc(Oc5ccc6c(c5)C(=O)N(*)C6=O)cc4C3=O)c2)c1` (repeat unit) gave a glass transition temperature of 246.00 ± 4.7 °C.
